The results in this text go back to patent US20080009545A1, “Anticancer agents” (The Ohio State University Research Foundation, priority 2006, published 2008).

What all share (format): cell-based, human
One assay deals with PC-3 cells. Put plainly: MTT cell viability, PC-3 cells. To be noted: 24-h exposure, serum-free RPMI 1640, MTT, read-out: IC50, proliferation inhibition. As to the method:
(§1) Cell culture—LNCaP androgen-dependent (p53+/+) and PC-3 androgen-nonresponsive (P53−/−) prostate cancer cells were obtained from the American Type Culture Collection (Manassas, Va.). The preparation of the stable Bcl-xL-overexpressing LNCaP clone B3 (LNCaP/B3) was previously described (18). PC-3, LNCaP, and LNCaP/B3 cells were maintained in RPMI 1640 supplemented with 10% fetal bovine serum (FBS) at 37° C. in a humidified incubator containing 5% carbon dioxide. Normal human prostate epithelial (PrEC) cells were purchased from Cambrex Bio Science Walkersville, Inc. (East Tutherford, N.J.). Cells were maintained in Prostate Epithelial Cell Medium with growth supplements at 37° C. in a humidified incubator containing 5% carbon dioxide. The recommended seeding density for subculture is 2,500 cells/cm^2. It takes 6-9 days from subculture to attain confluency.
(§2) Cell viability analysis—The effect of individual test agents on cell viability was assessed by using the MTT assay in 6 to 12 replicates. PC3, LNCaP, and B3-LNCaP cells were seeded and incubated in poly-p-lysine-coated, 96-well, flat-bottomed plates in RPMI 1640 medium supplemented with 10% FBS medium for 24 hours. PrEC cells were seeded at the recommend density in 96-well, flat-bottomed plates in Prostate Epithelial Cell Medium with growth supplements for 3 days. […] Absorbance at 570 nm was determined on a plate reader.
(§3) Determination of IC50 values—Data from cell viability and fluorescence polarization assays were analyzed by using the CalcuSyn software (Biosoft, Ferguson, Mo.) to determine IC50 values, in which the calculation was based on the medium-effect equation [i.e., log(fa/fu)=m log(D)−m log(Dm), where fa and fu denote fraction affected and unaffected, respectively; m represents the Hill-type coefficient signifying the sigmoidicity of the dose-effect curve; and D and Dm are the dose used and IC50, respectively.

A further assay relates to LNCaP cells. In words: MTT cell viability, LNCaP cells. To be noted: 24-h exposure, serum-free RPMI 1640, MTT, read-out: IC50, proliferation inhibition. How it is done:
as §1, §2, §3

A further assay deals with LNCaP/B3 cells. Put plainly: MTT cell viability, Bcl-xL-overexpressing LNCaP (LNCaP/B3) cells. The following applies: LNCaP/B3 vs LNCaP cells, 24-h exposure; to a degree greater than that of PC-3 cells. As to the method:
as §1, §2

`Cc1c(C)c2c(c(C)c1OC(=O)CCC(=O)O)CC[C@@](C)(CCC[C@H](C)CCC[C@H](C)CCCC(C)C)O2` [α-tocopheryl succinate, reference compound]: the IC50 in the assay with PC-3 cells came out at 40 µM; with LNCaP cells, 15 µM. Moreover, in the assay with LNCaP/B3 cells, the “resistance to induced cell death by ectopic Bcl-xL expression” value is “substantially increased the resistance”.
